Structures are written as SMILES. pIC50: −log10 of the molar value.

Experiment [1] concerns the target ErbB2 insYVMA (HER2-YVMA, SEQ ID NO: 2) (Homo sapiens, UniProt P04626, INS775YVMA/P1170A). Nature of the experiment: biochemical. Particulars: ErbB2 insYVMA enzyme assay; read-out: Assay 1 IC50.
The next experiment concerns the target ErbB2 WT (Homo sapiens (Human), UniProt P04626). Nature of the experiment: ErbB enzyme assay (CisBio HTRF KinEASE-TK), Assay 2. The class given is biochemical. The essentials:
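ErbB2 phosphorylates 250 nM biotin-TK substrate at 1 mM ATP in 25 mM HEPES pH 7.4, 10 mM MgCl2, 0.01% Triton X-100 and 2% DMSO, for 30 min at 22 °C. Product is detected by HTRF with Sa-XL665 and TK-Ab-Cryptate. Percent of control is set by DMSO-only wells and pre-quenched wells.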

The target in experiment [2] is ErbB2 with Exon 20 YVMA insertion (HER2-YVMA) (Homo sapiens (Human), UniProt P04626, INS775YVMA). Nature of the experiment: Cellular phosphorylation assay, constitutive ErbB2 phosphorylation (Y1196) in engineered NIH 3T3 cells, Assay 4. Format: cell-based. A digest of the protocol:
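Engineered NIH 3T3 cells expressing HER2-YVMA treated with compounds 1 h at 37 °C, then formaldehyde-fixed and methanol-permeabilized. pErbB2 Y1196 detected by in-cell infrared immunofluorescence, normalized to GAPDH. IC50 from the normalized curves.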

Another experiment has as its target EGFR (Homo sapiens (Human), UniProt P00533). Nature of the experiment: ErbB enzyme assay (CisBio HTRF KinEASE-TK), Assay 3. The class given is biochemical. A digest of the protocol: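 HTRF KinEASE-TK assay: kinase with 250 nM biotinylated TK-substrate and 1 mM ATP in 25 mM HEPES pH 7.4, 10 mM MgCl2, 0.01% Triton X-100, 2% DMSO, 30 min at 22 °C. Quenched with Sa-XL665/TK-Ab-Cryptate, read after 1 h. IC50 from 4-parameter fit of percent of control.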
For orientation: TR-FRET usually uses a lanthanide donor and a delayed reading to cut background.

In a further experiment the target is EGFR wild type (EGFR WT) (Homo sapiens (Human), UniProt P00533). Nature of the experiment: Cellular phosphorylation assay, EGF-stimulated EGFR phosphorylation in engineered NIH 3T3 cells, Phospho-EGFR DuoSet IC ELISA, Assay 5. Format: cell-based. A digest of the protocol: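 NIH 3T3 cells expressing EGFR WT (20,000/well, attached overnight) were exposed to serially diluted compound for 1 h at 37 °C, then stimulated with 100 ng/ml rEGF for 10 min. Phospho-EGFR in lysates measured by sandwich ELISA optical density; IC50 from curves.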
EGFR wild type (EGFR WT), sequence (P00533 25-1210): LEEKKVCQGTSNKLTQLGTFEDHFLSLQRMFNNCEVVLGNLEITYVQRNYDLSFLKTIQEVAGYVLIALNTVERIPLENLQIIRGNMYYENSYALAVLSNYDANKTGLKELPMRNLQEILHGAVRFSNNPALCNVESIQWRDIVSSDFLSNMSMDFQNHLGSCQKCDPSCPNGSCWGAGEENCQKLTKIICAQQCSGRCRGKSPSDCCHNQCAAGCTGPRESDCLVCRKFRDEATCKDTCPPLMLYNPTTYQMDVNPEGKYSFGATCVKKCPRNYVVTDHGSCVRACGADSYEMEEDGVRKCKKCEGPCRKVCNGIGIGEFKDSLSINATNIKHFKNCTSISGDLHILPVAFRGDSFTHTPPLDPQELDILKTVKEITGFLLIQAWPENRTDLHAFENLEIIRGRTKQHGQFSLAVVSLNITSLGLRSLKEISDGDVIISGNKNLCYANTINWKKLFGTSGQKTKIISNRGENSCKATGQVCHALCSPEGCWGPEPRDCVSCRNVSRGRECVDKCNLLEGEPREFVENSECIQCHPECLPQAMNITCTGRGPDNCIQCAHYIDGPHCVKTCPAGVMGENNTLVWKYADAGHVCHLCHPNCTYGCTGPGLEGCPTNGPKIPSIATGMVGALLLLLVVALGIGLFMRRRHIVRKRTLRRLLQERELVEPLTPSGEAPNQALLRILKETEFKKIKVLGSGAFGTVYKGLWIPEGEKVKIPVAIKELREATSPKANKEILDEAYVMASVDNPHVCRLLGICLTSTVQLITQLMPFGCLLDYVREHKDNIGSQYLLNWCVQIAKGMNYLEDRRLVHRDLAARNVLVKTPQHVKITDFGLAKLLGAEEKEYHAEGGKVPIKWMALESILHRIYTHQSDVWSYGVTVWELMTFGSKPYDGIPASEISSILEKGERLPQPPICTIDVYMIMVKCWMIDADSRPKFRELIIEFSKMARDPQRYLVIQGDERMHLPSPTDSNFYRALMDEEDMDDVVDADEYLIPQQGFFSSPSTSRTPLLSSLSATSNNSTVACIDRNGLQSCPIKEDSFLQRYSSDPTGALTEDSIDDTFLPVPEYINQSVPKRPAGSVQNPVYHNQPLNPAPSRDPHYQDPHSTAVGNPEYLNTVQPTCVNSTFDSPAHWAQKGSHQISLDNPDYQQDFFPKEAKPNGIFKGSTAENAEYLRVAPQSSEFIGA

ErbB2 insYVMA (HER2-YVMA, SEQ ID NO: 2), sequence (P04626 with tags, fused parts or gaps INS775YVMA/P1170A limits assumed): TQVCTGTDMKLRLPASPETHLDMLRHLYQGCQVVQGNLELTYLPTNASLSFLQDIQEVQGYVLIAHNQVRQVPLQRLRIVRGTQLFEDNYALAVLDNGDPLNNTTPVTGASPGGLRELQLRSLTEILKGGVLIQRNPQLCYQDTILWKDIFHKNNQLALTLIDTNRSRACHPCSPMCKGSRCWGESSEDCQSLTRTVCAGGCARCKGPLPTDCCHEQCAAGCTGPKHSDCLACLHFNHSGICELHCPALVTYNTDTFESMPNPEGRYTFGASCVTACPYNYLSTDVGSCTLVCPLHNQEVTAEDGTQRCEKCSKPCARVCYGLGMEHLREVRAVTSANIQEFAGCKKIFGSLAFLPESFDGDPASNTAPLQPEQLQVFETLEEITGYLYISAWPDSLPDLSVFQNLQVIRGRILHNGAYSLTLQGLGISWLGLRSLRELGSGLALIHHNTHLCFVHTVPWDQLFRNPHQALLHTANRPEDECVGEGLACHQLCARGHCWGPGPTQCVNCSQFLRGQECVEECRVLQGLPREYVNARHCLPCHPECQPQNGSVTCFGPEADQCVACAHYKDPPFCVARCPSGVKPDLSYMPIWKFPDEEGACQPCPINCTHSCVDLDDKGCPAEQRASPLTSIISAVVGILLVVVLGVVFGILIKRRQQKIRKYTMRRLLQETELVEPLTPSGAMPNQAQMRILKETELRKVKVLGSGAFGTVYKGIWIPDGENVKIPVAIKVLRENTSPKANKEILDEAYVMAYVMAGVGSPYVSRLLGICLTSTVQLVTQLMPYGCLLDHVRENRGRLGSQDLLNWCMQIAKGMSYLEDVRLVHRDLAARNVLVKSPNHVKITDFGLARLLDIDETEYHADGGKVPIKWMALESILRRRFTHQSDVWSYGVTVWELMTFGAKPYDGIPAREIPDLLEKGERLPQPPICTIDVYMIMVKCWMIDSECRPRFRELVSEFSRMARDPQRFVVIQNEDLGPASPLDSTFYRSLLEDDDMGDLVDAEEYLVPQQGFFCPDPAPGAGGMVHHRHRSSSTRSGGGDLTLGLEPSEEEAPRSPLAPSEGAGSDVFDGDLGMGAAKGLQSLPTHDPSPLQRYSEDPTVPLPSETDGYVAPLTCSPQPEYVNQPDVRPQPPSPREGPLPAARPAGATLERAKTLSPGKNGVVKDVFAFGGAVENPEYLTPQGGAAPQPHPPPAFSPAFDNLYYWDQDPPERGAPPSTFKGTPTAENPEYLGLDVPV
ErbB2 WT, sequence (P04626 23-1255): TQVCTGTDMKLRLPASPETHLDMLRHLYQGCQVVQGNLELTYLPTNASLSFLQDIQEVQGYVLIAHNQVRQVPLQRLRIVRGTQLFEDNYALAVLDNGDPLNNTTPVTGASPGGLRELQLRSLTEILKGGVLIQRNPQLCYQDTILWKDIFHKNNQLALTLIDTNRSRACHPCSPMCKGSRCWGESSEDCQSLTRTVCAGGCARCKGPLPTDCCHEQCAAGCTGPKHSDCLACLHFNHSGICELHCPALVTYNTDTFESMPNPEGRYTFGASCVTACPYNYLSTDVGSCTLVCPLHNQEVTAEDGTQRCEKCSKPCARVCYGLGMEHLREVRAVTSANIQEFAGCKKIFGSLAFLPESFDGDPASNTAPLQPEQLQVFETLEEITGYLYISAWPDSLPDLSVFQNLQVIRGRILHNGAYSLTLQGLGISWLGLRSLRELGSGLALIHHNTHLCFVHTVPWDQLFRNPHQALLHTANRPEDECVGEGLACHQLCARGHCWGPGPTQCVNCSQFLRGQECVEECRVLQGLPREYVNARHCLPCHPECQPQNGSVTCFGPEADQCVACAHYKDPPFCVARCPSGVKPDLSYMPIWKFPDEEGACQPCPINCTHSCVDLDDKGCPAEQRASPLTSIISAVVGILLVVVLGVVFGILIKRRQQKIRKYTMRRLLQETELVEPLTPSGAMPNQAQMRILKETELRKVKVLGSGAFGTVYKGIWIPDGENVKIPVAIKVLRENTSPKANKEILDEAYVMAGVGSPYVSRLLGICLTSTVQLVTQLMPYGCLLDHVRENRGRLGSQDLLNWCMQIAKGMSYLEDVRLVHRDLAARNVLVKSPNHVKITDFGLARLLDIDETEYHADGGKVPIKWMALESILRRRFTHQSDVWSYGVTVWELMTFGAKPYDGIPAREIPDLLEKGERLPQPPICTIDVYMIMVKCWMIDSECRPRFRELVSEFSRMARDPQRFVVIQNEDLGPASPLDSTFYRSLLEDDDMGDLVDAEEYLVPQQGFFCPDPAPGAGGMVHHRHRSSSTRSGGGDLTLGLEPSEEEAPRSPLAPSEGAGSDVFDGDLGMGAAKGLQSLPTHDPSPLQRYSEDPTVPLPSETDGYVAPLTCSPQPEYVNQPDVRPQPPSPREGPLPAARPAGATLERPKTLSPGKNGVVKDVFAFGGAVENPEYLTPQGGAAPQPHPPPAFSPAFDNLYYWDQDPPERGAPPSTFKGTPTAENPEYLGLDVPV
EGFR, sequence (P00533 25-1210): as the sequence (P00533 25-1210) above

As a reminder, the pIC50 is the IC50 on a negative log10 scale, so that one unit is a factor of ten. As to `Clc1cc(Nc2ncnc3cnc(N4CCOCC4)nc23)ccc1Oc1ccn2ncnc2c1` [Example 409], the pIC50 in experiment [1] was 7.74; against ErbB2 WT, 7.49; in experiment [2] it was 7.37; on EGFR, 5.45; against EGFR wild type (EGFR WT) it was not above 5.30.
For `FC(F)[C@H]1CCN1c1ncc2ncnc(Nc3ccc(Oc4ccn5ncnc5c4)c(Cl)c3)c2n1` [Example 410], in that order: 7.83, 7.37, 6.68, 5.20 and not above 5.30.
For `COC1CCN(c2ncc3ncnc(Nc4ccc(Oc5ccn6ncnc6c5)c(C)c4)c3n2)CC1` [Example 411], in that order: 7.58, 7.25, 6.22, not above 5.00 and not above 5.30.
On to `Cc1cc(Nc2ncnc3cnc(N4CCOCC4)nc23)ccc1Oc1ccn2ncnc2c1` [Example 412], for which the pIC50 in experiment [1] was 7.59; at ErbB2 WT it was 7.15; in experiment [2], 7.16; on EGFR, not above 5.00; on EGFR wild type (EGFR WT) it was not above 5.30.
The corresponding values for `Cc1cc(Nc2ncnc3cnc(N(C)C[C@H]4COCCO4)nc23)ccc1Oc1ccc2c(c1)ncn2C` [Example 413] are 7.30, 6.99, 7.51, not above 5.00 and not above 5.30.
Take `Cc1cc(Nc2ncnc3cnc(N4CCC[C@@](C)(O)C4)nc23)ccc1Oc1ccn2ncnc2c1` [Example 414]: the pIC50 is 7.60 in experiment [1]; 7.63 at ErbB2 WT; 6.85 in experiment [2]; 5.85 at EGFR; not above 5.30 on EGFR wild type (EGFR WT).
Turning to `Cc1cc(Nc2ncnc3cnc(N(C)[C@@H]4CCCOC4)nc23)ccc1Oc1ccn2ncnc2c1` [Example 415], the pIC50 in experiment [1] is 7.77; on ErbB2 WT, 7.77; in experiment [2], 7.02; against EGFR it was 6.01; against EGFR wild type (EGFR WT) it was not above 5.30.
Consider `N#CC[C@@H]1CCN(c2ncc3ncnc(Nc4ccc(Oc5ccn6ncnc6c5)c(Cl)c4)c3n2)C1` [Example 416], for which the pIC50 in experiment [1] was 7.95; on ErbB2 WT, 7.67; in experiment [2], 7.57; against EGFR, 5.65; against EGFR wild type (EGFR WT), not above 5.30.
For `Cc1cc(Nc2ncnc3cnc(N4CCN5CCOC[C@H]5C4)nc23)ccc1Oc1ccn2ncnc2c1` [Example 417], in that order: 7.50, 7.21, 7.20, 5.16 and not above 5.30.
As to `Clc1cc(Nc2ncnc3cnc(N4C[C@H]5C[C@@H]4CO5)nc23)ccc1Oc1ccn2ncnc2c1` [Example 418], the pIC50 is 7.37 in experiment [1]; 6.99 against ErbB2 WT; 6.64 in experiment [2]; not above 5.00 on EGFR; not above 5.30 on EGFR wild type (EGFR WT).
On to `Cc1cc(Nc2ncnc3cnc(N4C5CCC4COC5)nc23)ccc1Oc1ccn2ncnc2c1` [Example 419], for which the pIC50 was 6.96 in experiment [1]; 6.71 at ErbB2 WT; 6.27 in experiment [2]; not above 5.00 on EGFR; not above 5.30 against EGFR wild type (EGFR WT).
For `Cc1cc(Nc2ncnc3cnc(N4CCC5COCC54)nc23)ccc1Oc1ccn2ncnc2c1` (stereo not drawn) [Example 420], the pIC50 in experiment [1] is 8.09; against ErbB2 WT, 7.89; in experiment [2], 6.96; at EGFR, 5.80; against EGFR wild type (EGFR WT) it was not above 5.30.
For `Cc1cc(Nc2ncnc3cnc(N4CCN[C@@H](C(F)(F)F)C4)nc23)ccc1Oc1ccn2ncnc2c1` [Example 421], in that order: 7.53, 7.37, 7.16, 5.31 and not above 5.30.
The corresponding values for `Cc1cc(Nc2ncnc3cnc(N4CC[C@@H]4C(C)(C)O)nc23)ccc1Oc1ccn2ncnc2c1` [Example 423] are 6.96, 6.47, 5.71, not above 5.00 and not above 5.30.
On to `CN(c1ncc2ncnc(Nc3ccc(Oc4ccn5ncnc5c4)c(Cl)c3)c2n1)C1COC1` [Example 424], for which the pIC50 in experiment [1] is 7.80; at ErbB2 WT it was 7.71; in experiment [2] it was 7.35; against EGFR, 5.41; against EGFR wild type (EGFR WT) it was not above 5.30.
Take `Cc1cc(Nc2ncnc3cnc(N4CC5(CCN(C)C5=O)C4)nc23)ccc1Oc1ccc2c(c1)ncn2C` [Example 425]: the negative logarithm of the IC50 (pIC50) in experiment [1] is 7.17; against ErbB2 WT it was 6.31; in experiment [2] it was 6.73; on EGFR it was not above 5.00; against EGFR wild type (EGFR WT), not above 5.30.
For `Clc1cc(Nc2ncnc3cnc(N4C[C@@H]5C[C@H]4CO5)nc23)ccc1Oc1ccn2ncnc2c1` [Example 426], in that order: 7.79, 7.79, 6.95, 5.38 and not above 5.30.
The corresponding values for `Cc1cc(Nc2ncnc3cnc(N(C)[C@@H]4CCOC4)nc23)ccc1Oc1ccn2ncnc2c1` [Example 427] are 7.60, 7.37, 6.92, 5.10 and not above 5.30.
For `Cc1cc(Nc2ncnc3cnc(N4CCCO4)nc23)ccc1Oc1ccn2ncnc2c1` [Example 428], in that order: 7.26, 6.69, 6.50, not above 5.00 and not above 5.30.
As for `FC(F)(F)[C@H]1CN(c2ncc3ncnc(Nc4ccc(Oc5ccn6ncnc6c5)c(Cl)c4)c3n2)CCN1` [Example 429], the pIC50 was 7.95 in experiment [1]; 7.40 against ErbB2 WT; 7.33 in experiment [2]; 5.40 at EGFR; not above 5.30 against EGFR wild type (EGFR WT).
The corresponding values for `Clc1cc(Nc2ncnc3cnc(N4CCN5CCOC[C@H]5C4)nc23)ccc1Oc1ccn2ncnc2c1` [Example 430] are 8.07, 7.59, 7.50, 5.39 and not above 5.30.
In the case of `Clc1cc(Nc2ncnc3cnc(N4CCN5CCOC[C@@H]5C4)nc23)ccc1Oc1ccn2ncnc2c1` [Example 431], the pIC50 in experiment [1] is 7.66; against ErbB2 WT it was 7.20; in experiment [2], 6.64; at EGFR it was not above 5.00; on EGFR wild type (EGFR WT), not above 5.30.
The corresponding values for `Cc1cc(Nc2ncnc3cnc(N4CCC[C@@H]5COC[C@@H]54)nc23)ccc1Oc1ccc2c(c1)ncn2C` [Example 432] are 7.54, 7.15, 7.10, not above 5.00 and not above 5.30.
As to `O=S1(=O)CC[C@@H]2CN(c3ncc4ncnc(Nc5ccc(Oc6ccn7ncnc7c6)c(Cl)c5)c4n3)C[C@@H]21` [Example 433], the negative logarithm of the IC50 (pIC50) in experiment [1] was 7.53; at ErbB2 WT, 7.17; in experiment [2], 6.41; on EGFR it was not above 5.00; on EGFR wild type (EGFR WT), not above 5.30.

Source of the values: US11834453B2, “Substituted pyrimido[5,4-d]pyrimidines as HER2 inhibitors” (Array BioPharma Inc., priority 2020, dated 2023).
